Laboratory results as given in patent US20140010762A1, “IMAGING AGENTS” (Chroma Therapeutics Ltd, priority 2010, published 2014).

Legend:
KG-1 cells = assay: Measurement of fluorescence v time by flow cytometry, non-monocytic cell line; assay type: cell-based; details: KG-1 cells (insignificant quantities of hCE-1); FIG. 5; 3000 nM; median fluorescence intensity v time
Method: (§1) The degree of fluorescence of monocytic and non-monocytic cell lines following treatment with Example 1 was assessed using flow cytometry. This assessment was performed using a BD Biosciences BD FACSCanto™ Flow Cytometry System.
(§2) The cell lines are treated with a 3000 nM solution of Example 1. The resultant mixture is sampled at times 0, 1 hr, 2 hr, 4 hr and 6 hr. At each time point a sample of the cells is harvested by centrifugation, washed and allowed to rest for 30 minutes then washed again and re-suspended in a small volume for analysis by flow cytometry (FACSCanto™ A BD Biosciences) at an excitation of 488 nm blue laser line emission measured in an FITC detector using a 502 nm long pass dichroic and a 530±15 band pass filter. Data is expressed as median fluorescence intensity (MFI) for the cell population in the FITC channel, and plotted against time in a line graph. The unstained cells are set to an MFI of 100.

THP-1 cells = assay: Measurement of fluorescence v time by flow cytometry, monocytic cell line; assay type: cell-based; details: THP-1 cells (significant quantities of hCE-1); FIG. 6; 3000 nM; median fluorescence intensity v time
Method: as §1, §2

## O=C(OC1CCCC1)[C@@H](NCc1ccc(OCCCNc2ccc([N+](=O)[O-])c3nonc23)cc1)c1ccccc1 [Example 1, Cyclopentyl (2S)-[(4-{3-[(7-nitro-2,1,3-benzoxadiazol-4-yl)amino]propoxy}benzyl)amino](phenyl)ethanoate]
KG-1 cells
  increase in fluorescence following treatment: low increase in fluorescence
THP-1 cells
  increase in fluorescence following treatment: high increase in fluorescence
